Laboratory results published in the NIST ThermoML archive (doi:10.1016/j.tca.2016.05.006).
± gives the expanded uncertainty stated by the source.

Conditions: 298.15 K, 101.33 kPa, Liquid

OCCO [1,2-ethanediol]
electrical conductivity (Alternating current cell with electrodes): 9.2e-05 ± 2e-06 S/m | thermal conductivity (Transient line heat source): 0.2438 ± 0.011 W/m/K
